Data as given in ChEMBL document CHEMBL5380841, “Discovery and Binding Mechanism of Pyrazoloisoquinoline-Based Novel β-Arrestin Inverse Agonists of the Kappa-Opioid Receptor” (J Med Chem, 2023).
The source made the active and inactive calls. The calls are words filed in the database; no cut-off is given here.

Columns and labels:
[1] = biological target: Mu-type opioid receptor (Homo sapiens) (UniProt P35372); assay: Inverse agonist activity at MOR (unknown origin) expressed in HEK293T cells assessed as beta arrestin-2 recruitment upto 10 uM incubated for 20 mins by NanoBiT assay; type: functional, cell-based
Sequence of Mu-type opioid receptor (Homo sapiens) (P35372 whole entry): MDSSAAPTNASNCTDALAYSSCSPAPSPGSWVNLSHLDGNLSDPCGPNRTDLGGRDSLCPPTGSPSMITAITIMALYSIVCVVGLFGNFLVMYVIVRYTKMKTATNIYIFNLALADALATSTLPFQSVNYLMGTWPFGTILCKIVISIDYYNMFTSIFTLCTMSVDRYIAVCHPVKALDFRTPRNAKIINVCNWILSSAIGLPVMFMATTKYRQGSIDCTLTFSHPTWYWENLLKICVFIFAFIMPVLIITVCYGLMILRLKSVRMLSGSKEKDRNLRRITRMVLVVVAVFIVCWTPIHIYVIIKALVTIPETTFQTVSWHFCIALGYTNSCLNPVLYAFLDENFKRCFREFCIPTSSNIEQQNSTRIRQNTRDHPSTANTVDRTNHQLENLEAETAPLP

[2] = biological target: T1, Kappa-type opioid receptor (Homo sapiens, UniProt P41145); assay: Inverse agonist activity at human KOR expressed in human HTLA cells assessed as beta arrestin-2 recruitment by ONE-Glo luciferase assay; type: functional, cell-based
T1 sequence (P41145 whole entry): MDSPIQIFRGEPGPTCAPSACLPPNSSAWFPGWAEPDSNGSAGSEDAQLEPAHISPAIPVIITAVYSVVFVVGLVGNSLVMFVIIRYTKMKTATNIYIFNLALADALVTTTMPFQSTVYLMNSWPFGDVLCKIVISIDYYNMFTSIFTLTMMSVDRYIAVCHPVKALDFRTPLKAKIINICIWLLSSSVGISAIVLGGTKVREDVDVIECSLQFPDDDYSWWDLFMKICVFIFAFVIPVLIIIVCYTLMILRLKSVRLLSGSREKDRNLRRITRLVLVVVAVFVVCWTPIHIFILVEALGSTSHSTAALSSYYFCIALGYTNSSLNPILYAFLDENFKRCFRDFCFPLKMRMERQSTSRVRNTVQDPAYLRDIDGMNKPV

[3] = biological target: T1, Kappa-type opioid receptor; assay: Inverse agonist activity at human KOR expressed in human HTLA cells assessed as beta arrestin-2 recruitment at 10 uM by ONE-Glo luciferase assay relative to 1-(5-(2-Chlorophenyl)-7,8-dimethoxy-3-(3-methoxybenzyl)-3H-pyrazolo(3,4-c)isoquinolin-1-yl)-N-(3-methoxybenzyl)-methanamine; type: functional, cell-based
[4] = biological target: T2, Delta-type opioid receptor (Homo sapiens, UniProt P41143); assay: Inverse agonist activity at human DOR expressed in human HTLA cells assessed as beta arrestin-2 recruitment by ONE-Glo luciferase assay; type: functional, cell-based
T2 sequence (P41143 whole entry): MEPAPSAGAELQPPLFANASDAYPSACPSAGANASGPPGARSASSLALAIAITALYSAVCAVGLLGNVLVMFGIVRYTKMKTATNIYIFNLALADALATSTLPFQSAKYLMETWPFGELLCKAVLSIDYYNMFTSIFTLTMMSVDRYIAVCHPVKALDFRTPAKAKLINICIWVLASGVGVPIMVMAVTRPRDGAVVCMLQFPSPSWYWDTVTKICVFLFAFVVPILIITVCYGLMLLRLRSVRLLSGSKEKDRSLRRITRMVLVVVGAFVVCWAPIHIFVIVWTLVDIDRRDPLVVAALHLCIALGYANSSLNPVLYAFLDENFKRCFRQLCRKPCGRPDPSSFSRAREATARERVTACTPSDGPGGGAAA

Homo sapiens = species on record: Homo sapiens; assay: Selectivity ratio of EC50 for human DOR expressed in human HTLA cells assessed as beta arrestin-2 recruitment to EC50 for human KOR expressed in human HTLA cells assessed as beta arrestin-2 recruitment; type: cell-based
[5] = biological target: T1, Kappa-type opioid receptor; assay: Displacement of [3H]diprenorphine from human KOR expressed in HEK293 cells incubated for 60 mins by liquid scintillation method; type: cell-based
[6] = biological target: T1, Kappa-type opioid receptor; assay: Displacement of [3H]diprenorphine from human KOR expressed in HEK293 cells assessed as inhibition constant incubated for 60 mins by liquid scintillation method; type: cell-based
[7] = biological target: T1, Kappa-type opioid receptor; assay: Displacement of [3H]diprenorphine from human KOR expressed in HEK293 cells assessed as maximum inhibition at 10 uM incubated for 60 mins by liquid scintillation method relative to control; type: cell-based; conditions: filed as inverse agonist
[8] = biological target: T2, Delta-type opioid receptor; assay: Displacement of [3H]naltrindole from DOR (unknown origin) upto 1 uM by radioligand binding assay relative to control
[9] = biological target: Mu-type opioid receptor (Homo sapiens) (UniProt P35372); assay: Displacement of [3H]naltrindole from MOR (unknown origin) upto 1 uM by radioligand binding assay relative to control
[10] = biological target: T1, Kappa-type opioid receptor; assay: Inverse agonist activity at human KOR expressed in human HTLA cells assessed as beta arrestin-2 recruitment upto 10 uM by ONE-Glo luciferase assay; type: functional, cell-based
[11] = Permeability of the compound across blood brain barrier at pH 7.4 at 50 uM incubated for 4 hrs by PAMPA assay; type: ADME; conditions: read-out: permeability
[12] = biological target: T1, Kappa-type opioid receptor; assay: Inverse agonist activity at human KOR assessed as cAMP inhibition pretreated for 5 mins followed by forskolin treatment measured after 15 mins by Glo-Sensor cAMP cell based assay; type: functional; conditions: time 20.0 min
[13] = biological target: T2, Delta-type opioid receptor; assay: Inverse agonist activity at human DOR assessed as cAMP inhibition pretreated for 5 mins followed by forskolin treatment measured after 15 mins by Glo-Sensor cAMP cell based assay; type: functional; conditions: time 20.0 min
[14] = biological target: Mu-type opioid receptor (Homo sapiens) (UniProt P35372); assay: Inverse agonist activity at human MOR assessed as cAMP inhibition pretreated for 5 mins followed by forskolin treatment measured after 15 mins by Glo-Sensor cAMP cell based assay; type: functional; conditions: time 20.0 min

Compound	Activity [1]	EC50 [2]	Emax [3]	further results
COc1cccc(Cn2nc(CNCc3cc4ccccc4[nH]3)c3c4cc(OC)c(OC)cc4c(-c4ccccc4Cl)nc32)c1	inactive	339 nM	-98.3%	
COc1cccc(Cn2nc(CNCc3cccc(OCc4ccccc4)c3)c3c4cc(OC)c(OC)cc4c(-c4ccccc4Cl)nc32)c1	inactive	9.33 nM	-103%	EC50 [4]: 207 nM; Ratio EC50 (Homo sapiens): 22; IC50 [5]: 250 nM; Ki [6]: 100 nM; Imax [7]: 72%; inhibition [8]: 10%; inhibition [9]: 20%
COc1cc2c(-c3ccccc3Cl)nc3c(c(CNCc4cccc(Oc5ccccc5)c4)nn3Cc3cccc(Cl)c3)c2cc1OC	inactive	105 nM	-101%	
COc1cccc(Cn2nc(CNCc3ccccc3Oc3ccccc3)c3c4cc(OC)c(OC)cc4c(-c4ccccc4Cl)nc32)c1	inactive	54.5 nM	-104%	
COc1ccc(CNCc2nn(Cc3cccc(OC)c3)c3nc(-c4ccccc4Cl)c4cc(OC)c(OC)cc4c23)cc1	inactive	103 nM	-98.2%	
O=C(Cc1ccc(Cl)c(Cl)c1)N1CCCC[C@H]1CN1CCCC1		10.5 nM	-100%	
COc1cccc(CNCc2nn(Cc3cccc(OC)c3)c3ncc4cc(OC)c(OC)cc4c23)c1	inactive			Activity [10]: inactive; Activity [3]: inactive
COc1cccc(CCNCc2nn(Cc3cccc(OC)c3)c3nc(-c4ccccc4Cl)c4cc(OC)c(OC)cc4c23)c1	inactive	1060 nM	-72.8%	
COc1cccc(Cn2nc(CNCc3cccc(Oc4ccccc4)c3)c3c4cc(OC)c(OC)cc4c(-c4ccccc4Cl)nc32)c1	inactive	9.1 nM	-100%	EC50 [4]: 49.5 nM; Ratio EC50 (Homo sapiens): 5
COc1cc2c(-c3ccccc3Cl)nc3c(c(CNCc4cccc(Oc5ccccc5)c4)nn3CC3CCNCC3)c2cc1OC	inactive	2670 nM	-95.1%	
COc1cccc(CNCc2n[nH]c3nc(-c4ccccc4Cl)c4cc(OC)c(OC)cc4c23)c1	inactive			Activity [10]: inactive; Activity [3]: inactive
COc1cccc(Cn2nc(CNCc3cccc4ccccc34)c3c4cc(OC)c(OC)cc4c(-c4ccccc4Cl)nc32)c1	inactive	430 nM	-96.7%	
COc1cccc(Cn2nc(CNc3ccc4ccccc4c3)c3c4cc(OC)c(OC)cc4c(-c4ccccc4Cl)nc32)c1	inactive			Activity [10]: inactive; Activity [3]: inactive
COc1cccc(Cn2nc(CNCCc3cccc(Oc4ccccc4)c3)c3c4cc(OC)c(OC)cc4c(-c4ccccc4Cl)nc32)c1	inactive	227 nM	-81.9%	
COc1cccc(Cn2nc(CNCc3ccc(OC)c(OC)c3)c3c4cc(OC)c(OC)cc4c(-c4ccccc4Cl)nc32)c1	inactive	643 nM	-103%	
COc1cccc(Cn2nc(CNc3cccc(OC)c3)c3c4cc(OC)c(OC)cc4c(-c4ccccc4Cl)nc32)c1	inactive			Activity [10]: inactive; Activity [3]: inactive
COc1cccc(Cn2nc(CNCc3ccc4ccccc4c3)c3c4cc(OC)c(OC)cc4c(-c4ccccc4Cl)nc32)c1	inactive	94.3 nM	-97.6%	
COc1cccc(Cn2nc(CNCc3ccc(Oc4ccccc4)cc3)c3c4cc(OC)c(OC)cc4c(-c4ccccc4Cl)nc32)c1	inactive	338 nM	-91.8%	
COc1cccc(Cn2nc(CNCCc3ccc4ccccc4c3)c3c4cc(OC)c(OC)cc4c(-c4ccccc4Cl)nc32)c1	inactive	69.9 nM	-97.2%	EC50 [4]: 691 nM; Ratio EC50 (Homo sapiens): 10
CC(=O)[C@H]1CC[C@H]2[C@@H]3CCC4=CC(=O)CC[C@]4(C)[C@H]3CC[C@]12C [PROGESTERONE]				Papp at 4 h, 50 µM [11]: 37.8 ×10⁻⁶ cm/s
CNC(=C[N+](=O)[O-])NCCSCc1ccc(CN(C)C)o1.Cl [RANITIDINE HYDROCHLORIDE]				Papp at 4 h, 50 µM [11]: 0.12 ×10⁻⁶ cm/s
COc1cc2c(-c3ccccc3Cl)nc3c(c(CNCc4cccc(Oc5ccccc5)c4)nn3CC3CCN(C(=O)OC(C)(C)C)CC3)c2cc1OC	inactive	674 nM	-99.4%	
COc1cccc(CNCc2nn(Cc3cccc(OC)c3)c3nc(-c4ccccc4Cl)c4cc(OC)c(OC)cc4c23)c1	inactive	127 nM		EC50 [4]: 483 nM; Activity [12]: inactive; Activity [13]: inactive; Activity [14]: inactive
